From patent US20240261422A1, “ANTHRACYCLINE ANTIBODY CONJUGATES” (SEAGEN INC., priority 2021, published 2024)

Key:
L540cy, HL = test: In vitro growth inhibition (CellTiter-Glo, 96 h), L540cy; assay type: cell-based
Procedure: (§1) Cell culture of cell lines as listed in Table 2-4 in log-phase growth were seeded in 96-well plates and grown for 24 h in cell culture media containing 150 μL RPMI 1640 supplemented with 20% FBS (see Mol. Cancer Ther., 2016, 15(5), 938-945 and Mol. Cancer Ther., 2018, 17(8), 1752-1760). Serial dilutions of free drugs or antibody-drug conjugates (final concentration between 0.004 nM and 1 μM) in cell culture media were prepared at 4× working concentrations; 50 μL of each dilution was added to the 96-well plates. Following addition of the drug or ADC, the cells were incubated with test articles (free drugs or ADCs) for 4 d at 37° C. After 96 h, growth inhibition was assessed by CellTiter-Glo® (Promega, Madison, WI) and luminescence was measured on a plate reader (brand, model).
(§2) Cells were treated for 96 hours with anthracycline analogues listed in Table 2, and then assessed for viability as described in the procedures as described above. […] ND denotes value not determined with that assay for the specified compound.
(§3) ADCs were prepared by full reduction of interchain disulfides to reveal 8-conjugatable cysteines/antibody, and subsequent alkylation with the maleimide-containing drug-linkers (Compounds 14, 18, 21, 24, 29, 32, 33, 34, and 48) according to the procedures described in Mol. Cancer Ther. 2018, 17(8). 1752-1760. Conjugates of antibody cOKT9 were prepared with anthracycline linkers. Cancer cell lines were treated with cOKT9 ADCs (average DAR of 8:1) for 96 h and then assessed for viability. […] ND denotes value not determined with that assay for the specified compound.
(§4) Anti-CD30 ADCs comprising cAC10 antibody conjugated to drug-linkers 24, 32, 29, 18, 14, and 48 with an average DAR of 4 were prepared for evaluation on a CD30-expressing lymphoma cell line panel. […] Anti-CD30 conjugates bearing the PNU linkers 24, 32, 29, 18, and 14 were active on L540cy, DEL, and Karpas299 lymphoma cell lines, and conjugate 48 was active on L540cy and DEL cell lines, with IC50s ranging from 0.2-4 ng/mL.

786-O, MDR + RCC = test: In vitro growth inhibition (CellTiter-Glo, 96 h), 786-O; assay type: cell-based; conditions: for IC50 (ng/mL) 786-O, MDR + RCC: cOKT9 ADCs, average DAR 8, 96 h
Procedure: as §1, §2, §3

BxPC3, PancCa = test: In vitro growth inhibition (CellTiter-Glo, 96 h), BxPC3; assay type: cell-based; conditions: for IC50 (ng/mL) BxPC3, PancCa: cOKT9 ADCs, average DAR 8, 96 h
Procedure: as §1, §2, §3

HL60, AML = test: In vitro growth inhibition (CellTiter-Glo, 96 h), HL60; assay type: cell-based; conditions: for IC50 (ng/mL) HL60, AML: cOKT9 ADCs, average DAR 8, 96 h
Procedure: as §1, §2, §3

HL60/RV, MDR + AML = test: In vitro growth inhibition (CellTiter-Glo, 96 h), HL60/RV; assay type: cell-based; conditions: for IC50 (ng/mL) HL60/RV, MDR + AML: cOKT9 ADCs, average DAR 8, 96 h
Procedure: as §1, §2, §3

[1] = system: L540cy, 786-O, BxPC3, HL60, HL60/RV; test: cells; conditions: 96 h, read-out: IC50 values on the cancer lines tested
L428, MDR + HL = test: In vitro growth inhibition (CellTiter-Glo, 96 h), L428; assay type: cell-based; conditions: cAC10 (anti-CD30) ADCs, average DAR 4
Procedure: as §1, §4

DEL, ALCL = test: In vitro growth inhibition (CellTiter-Glo, 96 h), DEL; assay type: cell-based; conditions: cAC10 (anti-CD30) ADCs, average DAR 4
Procedure: as §1, §4

Karpas299, ALCL = test: In vitro growth inhibition (CellTiter-Glo, 96 h), Karpas299; assay type: cell-based; conditions: cAC10 (anti-CD30) ADCs, average DAR 4
Procedure: as §1, §4

Ramos, CD30 − NHL = test: In vitro growth inhibition (CellTiter-Glo, 96 h), Ramos; assay type: cell-based; conditions: cAC10 (anti-CD30) ADCs, average DAR 4
Procedure: as §1, §4

[2] = system: L540cy Hodgkin's lymphoma xenograft; test: L540cy CD30+ Hodgkin lymphoma xenograft model; assay type: in vivo, SCID mice; conditions: cAC10 S239C ADCs, average DAR 2; single dose i.p. at about 100 mm^3
Procedure: (§5) All experiments were conducted in concordance with the Animal Care and Use Committee in a facility fully accredited by the Association for Assessment and Accreditation of Laboratory Animal Care. Efficacy experiments were conducted using the L540cy Hodgkin's lymphoma and DEL/BVR anaplastic large cell lymphoma xenograft models (Mol. Cancer Ther., 2018, 17(8), 1752-1760). Tumor cells, as a cell suspension, were implanted subcutaneously in immune-compromised SCID female mice. Upon tumor engraftment, the mice were randomized into study groups when the average tumor volume reached about 100 mm^3. The ADCs were dosed once via intraperitoneal injection. Tumor volume as a function of time was determined using the formula (L×W2)/2. Animals were euthanized when tumor volumes reached 1000 mm^3.
Anti-CD30 conjugates bearing PNU drug-linkers 29, 18, and 14 were evaluated in a CD30-expressing xenograft model as described above. cAC10 antibody with the S239C mutation is conjugated to the PNU drug linkers with an average DAR of 2 to minimize the effects of ADC pharmacokinetics. Tumor-bearing mice were administered a single dose intraperitoneally (i.p.) of test article once the average tumor volume reached 100 mm^3 (typically on day 8). Untreated mice were used as negative controls.

[3] = system: DEL/BVR anaplastic large cell lymphoma xenograft; test: DEL/BVR MDR+, CD30+ anaplastic large cell lymphoma xenograft model; assay type: in vivo, SCID mice; conditions: cAC10 S239C ADCs, average DAR 2; 3 mg/kg single dose i.p.
Procedure: as §5
Anti-CD30 conjugates bearing PNU drug-linkers 29, 18, and 14 were further evaluated in a DEL/BVR MDR+, CD30+ anaplastic large cell lymphoma xenograft model. cAC10 antibody with the S239C mutation is conjugated to the PNU drug linkers with an average DAR of 2 to minimize the effects of ADC pharmacokinetics. Tumor-bearing mice were administered a 3 mg/kg single dose intraperitoneally (i.p.) of test article once the average tumor volume reached 100 mm^3 (typically on day 4). […] However, the conjugate comprising PNU linker 29 appeared to be non-efficacious, and only provided minimal tumor growth delay (FIG. 2). Untreated mice were used as negative controls.

[4] = system: L540cy, 786-O, BxPC3, HL60, HL60/RV; conditions: 24 h
[5] = cAC10 (anti-CD30) ADCs, average DAR 4
[6] = cOKT9 ADCs, average DAR 8, 96 h

## COc1cccc2c1C(=O)c1c(O)c3c(c(O)c1C2=O)C[C@@](O)(C(=O)O)C[C@@H]3O[C@H]1C[C@H]2[C@H](O[C@@H]3[C@@H](OC)OCCN32)[C@H](C)O1 [Compound 6, (2S,4S)-2,5,12-trihydroxy-7-methoxy-4-(((1S,3R,4aS,9S,9aR,10aS)-9-methoxy-1-methyloctahydro-1H-pyrano[4′,3′:4,5]oxazolo[2,3-c][1,4]oxazin-3-yl)oxy)-6,11-dioxo-1,2,3,4,6,11-hexahydrotetracene-2-carboxylic acid]
L540cy, HL; L540cy, anthracycline free drugs, 96 h, read-out: IC50 (nM) L540cy, HL
  IC50: < 10 nM
786-O, MDR + RCC; Homo sapiens, 786-0, anthracycline free drugs, 96 h, read-out: IC50 (nM) 786-O, MDR + RCC
  IC50: < 10 nM
BxPC3, PancCa; Homo sapiens, BXPC-3, anthracycline free drugs, 96 h, read-out: IC50 (nM) BxPC3, PancCa
  IC50: 10 to 100 nM
HL60, AML; Homo sapiens, HL-60, 96 h, read-out: IC50 (nM) HL60, AML
  IC50: 10 to 100 nM
HL60/RV, MDR + AML; Homo sapiens, HL-60, 96 h, read-out: IC50 (nM) HL60/RV, MDR + AML
  IC50: 10 to 100 nM
[1]
  IC50: 5 to 19 nM

## COc1cccc2c1C(=O)c1c(O)c3c(c(O)c1C2=O)C[C@@](O)(C(=O)NCCNC(=O)CCN1C(=O)C=CC1=O)C[C@@H]3O[C@H]1C[C@H]2[C@H](O[C@@H]3[C@@H](OC)OCCN32)[C@H](C)O1 [Compound 14, (2S,4S)—N-(2-(3-(2,5-dioxo-2,5-dihydro-1H-pyrrol-1-yl)propanamido)ethyl)-2,5,12-trihydroxy-7-methoxy-4-(((1S,3R,4aS,9S,9aR,10aS)-9-methoxy-1-methyloctahydro-1H-pyrano[4′,3′:4,5]oxazolo[2,3-c][1,4]oxazin-3-yl)oxy)-6,11-dioxo-1,2,3,4,6,11-hexahydrotetracene-2-carboxamide]
L540cy, HL; [5]
  IC50 (ng/mL) L540cy, HL: B (1 ng/mL≤IC50<10 ng/mL)
L540cy, HL; [6]
  IC50 (ng/mL) L540cy, HL: A (IC50<10 ng/mL)
786-O, MDR + RCC
  IC50 (ng/mL) 786-O, MDR + RCC: A (IC50<10 ng/mL)
BxPC3, PancCa
  IC50 (ng/mL) BxPC3, PancCa: A (IC50<10 ng/mL)
HL60, AML
  IC50 (ng/mL) HL60, AML: C (100 ng/mL≤IC50<1000 ng/mL)
HL60/RV, MDR + AML
  IC50 (ng/mL) HL60/RV, MDR + AML: D (IC50≥1000 ng/mL)
L428, MDR + HL
  IC50 (ng/mL) L428, MDR + HL: B (1 ng/mL≤IC50<10 ng/mL)
DEL, ALCL
  IC50 (ng/mL) DEL, ALCL: B (1 ng/mL≤IC50<10 ng/mL)
Karpas299, ALCL
  IC50 (ng/mL) Karpas299, ALCL: A (IC50<1 ng/mL)
Ramos, CD30 − NHL
  IC50 (ng/mL) Ramos, CD30 − NHL: E (IC50≥500 ng/mL)
[2]
  antitumor activity, L540cy xenograft (FIG. 1): active with a majority of animals in a complete regression
[3]
  antitumor activity, DEL/BVR xenograft (FIG. 2): efficacious in suppressing tumor growth
[4]
  IC50s of cOKT9 conjugates: 1 to 150 ng/mL

## COc1cccc2c1C(=O)c1c(O)c3c(c(O)c1C2=O)C[C@@](O)(C(=O)N(C)CCN(C)C(=O)OCc1ccc(NC(=O)[C@H](C)NC(=O)[C@@H](NC(=O)CCN2C(=O)C=CC2=O)C(C)C)cc1)C[C@@H]3O[C@H]1C[C@H]2[C@H](O[C@@H]3[C@@H](OC)OCCN32)[C@H](C)O1 [Compound 32, 4-((S)-2-((S)-2-(3-(2,5-dioxo-2,5-dihydro-1H-pyrrol-1-yl)propanamido)-3-methylbutanamido)propanamido)benzyl methyl(2-((2S,4S)-2,5,12-trihydroxy-7-methoxy-4-(((1S,3R,4aS,9S,9aR,10aS)-9-methoxy-1-methyloctahydro-1H-pyrano[4′,3′:4,5]oxazolo[2,3-c][1,4]oxazin-3-yl)oxy)-N-methyl-6,11-dioxo-1,2,3,4,6,11-hexahydrotetracene-2-carboxamido)ethyl)carbamate]
L540cy, HL; [5]
  IC50 (ng/mL) L540cy, HL: C (10 ng/mL≤IC50<100 ng/mL)
L540cy, HL; [6]
  IC50 (ng/mL) L540cy, HL: B (10 ng/mL≤IC50<100 ng/mL)
786-O, MDR + RCC
  IC50 (ng/mL) 786-O, MDR + RCC: C (100 ng/mL≤IC50<1000 ng/mL)
BxPC3, PancCa
  IC50 (ng/mL) BxPC3, PancCa: B (10 ng/mL≤IC50<100 ng/mL)
HL60, AML
  IC50 (ng/mL) HL60, AML: B (10 ng/mL≤IC50<100 ng/mL)
HL60/RV, MDR + AML; cOKT9 ADCs DAR 8, result in words
  activity of cOKT9 conjugates on multidrug resistant HL60/RV: active
HL60/RV, MDR + AML
  IC50 (ng/mL) HL60/RV, MDR + AML: C (100 ng/mL≤IC50<1000 ng/mL)
L428, MDR + HL
  IC50 (ng/mL) L428, MDR + HL: E (IC50≥500 ng/mL)
DEL, ALCL
  IC50 (ng/mL) DEL, ALCL: B (1 ng/mL≤IC50<10 ng/mL)
Karpas299, ALCL
  IC50 (ng/mL) Karpas299, ALCL: B (1 ng/mL≤IC50<10 ng/mL)
Ramos, CD30 − NHL
  IC50 (ng/mL) Ramos, CD30 − NHL: D (100 ng/mL≤IC50<500 ng/mL)
[4]
  IC50s of cOKT9 conjugates: 1 to 150 ng/mL
